Source: paper PMC6100415, “Hepatic Metabolism of Sakuranetin and Its Modulating Effects on Cytochrome P450s and UDP-Glucuronosyltransferases” (Molecules : A Journal of Synthetic Chemistry and Natural …, 2018)
Where two headings read alike, the source gives them in different places.

Assays:
Format in all cases: in vitro ADME
UGT1A3 = biological target: T1, UGT1A3 (Homo sapiens, UniProt P35503); test: UGT inhibition in human liver microsomes, chenodeoxycholic acid 24-glucuronidation (CDCAG); details: pH 7.4, probe chenodeoxycholic acid (200 μM)
T1 construct: The typical incubation mixture contained human liver microsomes (0.5 mg/mL) along with SKN (10 μM); tissue BD Gentest; host or cells: human liver microsomes
T1 sequence (P35503 29-534): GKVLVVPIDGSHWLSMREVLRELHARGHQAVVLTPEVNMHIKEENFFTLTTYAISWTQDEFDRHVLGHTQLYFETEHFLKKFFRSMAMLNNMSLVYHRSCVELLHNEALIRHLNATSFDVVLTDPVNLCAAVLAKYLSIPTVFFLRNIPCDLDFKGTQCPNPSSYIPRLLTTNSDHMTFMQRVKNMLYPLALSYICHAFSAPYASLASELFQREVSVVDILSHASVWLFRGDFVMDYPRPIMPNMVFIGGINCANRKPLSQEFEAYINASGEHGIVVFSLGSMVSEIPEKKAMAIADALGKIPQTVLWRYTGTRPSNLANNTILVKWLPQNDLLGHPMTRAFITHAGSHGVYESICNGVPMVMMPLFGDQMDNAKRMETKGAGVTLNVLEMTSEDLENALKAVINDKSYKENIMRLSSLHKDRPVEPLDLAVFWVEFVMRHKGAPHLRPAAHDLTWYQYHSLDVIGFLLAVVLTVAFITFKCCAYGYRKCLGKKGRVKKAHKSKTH
Experimental: (§1) The formation of a glucuronide conjugate from an isozyme-specific substrate (200 μM, Table 5) was examined to determine UGT activity levels in human liver microsomes. The typical incubation mixture contained human liver microsomes (0.5 mg/mL) along with SKN (10 μM), and MgCl2 (10 mM) in 50 mM Tris-HCl buffer (pH 7.4). The metabolic reaction was initiated by adding UPDGA (2 mM) and stopped by adding an equal volume of ice-cold methanol. […] The conditions used for the operation and analysis of the HPLC-DAD and LC-ESI-MS are provided in the Supplementary Materials and Table S3.
(§2) The solvent flow rate was set at 0.2 mL/min, and the column temperature was set at 35 °C. The LTQ instrument was operated in negative ion electron spray mode at an ion spray voltage of −4.2 kV and a source temperature of 275 °C. The sheath gas flow rate was 35 arb, and the aux gas flow rate was 5 arb. The MS conditions used to detect glucuronides via selected ion monitoring scan mode are summarized in Supplementary Materials Table S3.

UGT1A6 = biological target: T2, UGT1A6 (Homo sapiens, UniProt P19224); test: UGT inhibition in human liver microsomes, 1-naphthol β-D-glucuronidation (NPG); details: pH 7.4, probe 1-naphthol (200 μM)
T2 construct: The typical incubation mixture contained human liver microsomes (0.5 mg/mL) along with SKN (10 μM); tissue BD Gentest; host or cells: human liver microsomes
T2 sequence (P19224 27-532): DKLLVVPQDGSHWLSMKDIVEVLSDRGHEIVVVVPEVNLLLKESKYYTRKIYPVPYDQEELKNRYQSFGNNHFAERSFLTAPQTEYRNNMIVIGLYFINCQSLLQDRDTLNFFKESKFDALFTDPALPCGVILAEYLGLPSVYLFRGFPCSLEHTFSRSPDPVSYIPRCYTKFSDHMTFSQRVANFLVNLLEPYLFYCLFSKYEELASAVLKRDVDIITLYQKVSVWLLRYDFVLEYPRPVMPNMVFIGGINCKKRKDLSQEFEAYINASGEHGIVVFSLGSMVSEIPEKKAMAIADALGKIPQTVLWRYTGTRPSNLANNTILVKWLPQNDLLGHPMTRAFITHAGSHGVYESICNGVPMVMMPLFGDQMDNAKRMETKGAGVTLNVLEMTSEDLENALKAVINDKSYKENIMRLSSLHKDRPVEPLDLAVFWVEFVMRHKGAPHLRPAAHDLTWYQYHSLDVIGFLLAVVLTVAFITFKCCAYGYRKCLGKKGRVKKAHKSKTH
Experimental: as §1, §2

UGT1A9 = biological target: T3, UGT1A9 (Homo sapiens, UniProt O60656); test: UGT inhibition in human liver microsomes, mycophenolic acid O-glucuronidation (MPAG); details: for inhibition at 10 μM: human, pH 7.4, probe mycophenolic acid (200 μM), O-glucuronidation (MPAG), UGT1A9, MPAG
T3 construct: The typical incubation mixture contained human liver microsomes (0.5 mg/mL) along with SKN (10 μM); tissue BD Gentest; host or cells: human liver microsomes
T3 sequence (O60656 26-530): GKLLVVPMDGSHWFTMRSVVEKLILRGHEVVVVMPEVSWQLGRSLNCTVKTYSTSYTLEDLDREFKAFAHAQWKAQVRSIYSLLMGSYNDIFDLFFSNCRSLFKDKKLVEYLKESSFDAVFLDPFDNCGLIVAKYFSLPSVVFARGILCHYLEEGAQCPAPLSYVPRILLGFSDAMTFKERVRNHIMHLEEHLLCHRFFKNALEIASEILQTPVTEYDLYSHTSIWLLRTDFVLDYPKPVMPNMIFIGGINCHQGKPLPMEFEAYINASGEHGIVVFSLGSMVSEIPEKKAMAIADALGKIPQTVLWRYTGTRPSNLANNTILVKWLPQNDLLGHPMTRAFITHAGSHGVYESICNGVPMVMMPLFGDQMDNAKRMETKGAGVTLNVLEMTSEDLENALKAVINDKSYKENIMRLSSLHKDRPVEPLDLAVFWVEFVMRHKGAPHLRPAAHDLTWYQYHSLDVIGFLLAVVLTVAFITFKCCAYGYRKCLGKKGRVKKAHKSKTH
Experimental: as §1, §2

UGT2B7 = biological target: T4, UGT2B7 (Homo sapiens, UniProt P16662); test: UGT inhibition in human liver microsomes, zidovudine 5′-glucuronidation (AZTG); details: pH 7.4, probe zidovudine (200 μM)
T4 construct: The typical incubation mixture contained human liver microsomes (0.5 mg/mL) along with SKN (10 μM); tissue BD Gentest; host or cells: human liver microsomes
T4 sequence (P16662 24-529): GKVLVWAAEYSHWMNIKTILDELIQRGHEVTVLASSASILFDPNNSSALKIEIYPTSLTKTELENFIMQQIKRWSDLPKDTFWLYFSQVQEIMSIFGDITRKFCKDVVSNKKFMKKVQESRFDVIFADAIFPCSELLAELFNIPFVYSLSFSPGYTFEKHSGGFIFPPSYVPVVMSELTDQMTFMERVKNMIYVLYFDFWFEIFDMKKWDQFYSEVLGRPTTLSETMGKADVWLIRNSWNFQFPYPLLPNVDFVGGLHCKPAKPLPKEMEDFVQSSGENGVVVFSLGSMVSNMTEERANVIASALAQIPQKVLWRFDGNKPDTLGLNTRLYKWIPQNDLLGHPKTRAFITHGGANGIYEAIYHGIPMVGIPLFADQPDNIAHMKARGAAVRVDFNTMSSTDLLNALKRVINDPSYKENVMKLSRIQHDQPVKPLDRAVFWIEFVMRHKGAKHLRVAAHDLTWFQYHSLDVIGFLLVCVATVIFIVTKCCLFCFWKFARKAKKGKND
Experimental: as §1, §2

[1] = SKN 10 μM, 15 min pre-incubation, read-out: % Inhibition in Pre-Incubation
[2] = SKN 10 μM, read-out: % Inhibition in Co-Incubation
[3] = inhibitor 10 µM, human liver microsomes 0.5 mg/mL, read-out: Inhibition (%)
[4] = human liver microsomes, inhibitor 10 µM, human liver microsomes 0.5 mg/mL, read-out: Inhibition (%)

SMILES	inhibition at 10 μM (UGT1A3; [1])	inhibition at 10 μM (UGT1A3; [2])	inhibition at 10 μM (UGT1A6; [1])	inhibition at 10 μM (UGT1A6; [2])	fold higher inhibition of UGT1A9 in the pre-incubation sample than in the co-incubation sample (UGT1A9; SKN, human liver microsomes)	inhibition at 10 μM (UGT1A9; human liver microsomes, SKN 10 μM, 15 min pre-incubation, read-out: % Inhibition in Pre-Incubation)	inhibition at 10 μM (UGT1A9; human liver microsomes, SKN 10 μM, human liver microsomes, read-out: % Inhibition in Co-Incubation)	mode of UGT1A9 inhibition (UGT1A9; pre-incubation 15 min, 10-fold dilution)	inhibition at 10 μM (UGT2B7; [1])	inhibition at 10 μM (UGT2B7; [2])	inhibition at 10 μM (UGT1A3; [3])	inhibition at 10 μM (UGT1A6; [3])	inhibition at 10 μM (UGT1A9; [4])	inhibition at 10 μM (UGT2B7; [3])
COc1cc(O)c2c(c1)OC(c1ccc(O)cc1)CC2=O (racemic) [SKN, (+/−) 7-O-methylnaringenin]	0.8 ± 0.2%	-0.6 ± 0.9%	10.1 ± 1.2%	2 ± 0.6%	1.5 fold	3.5 ± 2.6%	-0.6 ± 3.1%	irreversible UGT1A9 inhibitor	12.6 ± 2.8%	15.6 ± 0.6%	–	–	–	–
O=C1C[C@@H](c2ccc(O)c(O)c2)Oc2cc(O)cc(O)c21 [Eriodictyol, 3′-hydroxynaringenin]	–	–	–	–	–	–	–	–	–	–	15.7 ± 2.9%	1.9 ± 2.7%	2.9 ± 0.8%	8.2 ± 1.4%
O=C1C[C@@H](c2ccc(O)cc2)Oc2cc(O)cc(O)c21 [Naringenin]	–	–	–	–	–	–	–	–	–	–	2 ± 0.9%	4.1 ± 3.1%	2 ± 2.1%	6 ± 2.2%
